# Measured values reported in patent EP4420684A1, “DNA TOXIC DIMER COMPOUND AND CONJUGATE THEREOF” (Systimmune, Inc., priority 2022, dated 2023).
# Experiments:
# SK-BR-3 tumor cells = assay: In vitro activity test (MTS, 5 days), growth inhibition of SK-BR-3 cells; format: cell-based; settings: Homo sapiens, 120 h
# Procedure: • Cells: derived from the Cell Bank of the Chinese Academy of Sciences; • Tumor cell culture medium: Gibco™; • Fetal Bovine Serum (FBS): BIOWEST™;
# • Growth medium (with 10% FBS, Penicillin/streptomycin (100 U/mL); • Assay medium (with 1% FBS, Penicillin/streptomycin (100 U/mL);
# The biosafety cabinet was turned on for UV light irradiation 30 min in advance, and subsequently ventilated for 3 minutes. The growth medium, assay medium, D-PBS and trypsin were preheated in a 37°C thermostatic water bath, after which the surface was sterilized with alcohol and placed in the biosafety cabinet. Cells with a confluence of ~80% (logarithmic growth phase) were selected and placed in a biosafety cabinet, old medium was aspirated off, rinsed with D-PBS, aspirated and discarded, digested with trypsin for 2-3 minutes, after which growth medium was added to terminate the trypsin, and centrifuged at 500 × g for 5 minutes. The centrifugation supernatant was aspirated off, and the cells were mixed with 4 mL of assay medium, and 100 uL of the cells were taken for counting (of which 50 uL of cytosol was taken out, and 50 uL of 0.4% cell solution was added to 50 µL of 0.4% Trypan Blue Stain and mix, count after mixing). Spread the plate according to the previously set cell number, 80 uL/well in 96-well plate, wells E11, F11, G11 only received 80 uL of detection medium, the wells on the edge received 200 uL of DPBS to seal the edge. After the cells are completely attached to the wall (usually at least 4 hours), the test samples were configured and diluted: 1.0 mL of 2.5 µM (5 ×Top Dose) test samples were configured with the assay medium and dispensed into the first column of the V-type 96-well plate, with 200 µL in each well; 180 µL of assay medium was added to the second through eighth columns, and 30 µL was added to the second column from the first column, and mixed up and down with a row gun for […]. The test medium was mixed up and down 10 times with a row gun, discard the gun tip, and the remaining test concentration points were operated sequentially to perform 7-fold gradient concentration dilution. […]
# The MTS reagent was removed from the test samples after 5 days of action, thawed at room temperature and protected from light, vortexed and mixed thoroughly, and then 20 µL of Cell Titer One Solution Reagen MTS reagent was added along the side wall of the wells for every 100 µL of cell culture volume in a biosafety cabinet. […] After the end of the reaction, took out the 96-well plate, placed in the enzyme labeling instrument to detect the OD490 nm absorbance value, and performed the data recording, organization and storage.
# N87 tumor cells = assay: In vitro activity test (MTS, 5 days), growth inhibition of N87 cells; format: cell-based; settings: 120 h
# Procedure: The biosafety cabinet was turned on for UV light irradiation 30 min in advance, and subsequently ventilated for 3 minutes. The growth medium, assay medium, D-PBS and trypsin were preheated in a 37°C thermostatic water bath, after which the surface was sterilized with alcohol and placed in the biosafety cabinet. Cells with a confluence of ~80% (logarithmic growth phase) were selected and placed in a biosafety cabinet, old medium was aspirated off, rinsed with D-PBS, aspirated and discarded, digested with trypsin for 2-3 minutes, after which growth medium was added to terminate the trypsin, and centrifuged at 500 × g for 5 minutes. The centrifugation supernatant was aspirated off, and the cells were mixed with 4 mL of assay medium, and 100 uL of the cells were taken for counting (of which 50 uL of cytosol was taken out, and 50 uL of 0.4% cell solution was added to 50 µL of 0.4% Trypan Blue Stain and mix, count after mixing). Spread the plate according to the previously set cell number, 80 uL/well in 96-well plate, wells E11, F11, G11 only received 80 uL of detection medium, the wells on the edge received 200 uL of DPBS to seal the edge. […]
SMILES,IC50 (SK-BR-3 tumor cells) [nM],IC50 (N87 tumor cells) [nM]
COc1ccc(C2=CN3C(=O)c4cc(OC)c(OCC56CC(C(=O)N7C[C@@H](CCl)c8c7cc(O)c7cccc(C)c87)(C5)C6)cc4N=C[C@@H]3C2)cc1 [Compound A],0.52,–
COc1cc2c(cc1OCC13CC(C(=O)N4C[C@@H](CCl)c5c4cc(O)c4cccc(C)c54)(C1)C3)N=C[C@@H]1CC(c3ccc(NC(=O)CO)cc3)=CN1C2=O [Compound B1],4.23,5.03
COc1cc2c(cc1OCCCCC(=O)N1C[C@@H](CCl)c3c1cc(O)c1cccc(C)c31)N=C[C@@H]1CC(c3ccc(NC(=O)CO)cc3)=CN1C2=O [Compound C1],8.67,9.68
COc1cc2c(cc1OCCCCC(=O)N1C[C@@H](CCl)c3c1cc(O)c1cccc(C)c31)N=C[C@@H]1Cc3ccc(NC(=O)CO)cc3N1C2=O [Compound D1],10.3,12.3
